Measured values as given in ChEMBL document CHEMBL1124385, “A new series of tricyclic (aryloximino)propanolamines displaying very high selective beta 2-blocking properties” (J Med Chem, 1989).

How the values were obtained:
[1] = biological target: Beta-2 adrenergic receptor (Cavia porcellus, UniProt Q8K4Z4); assay: Beta-2 adrenergic receptor blocking was assessed from 50% inhibition of the isoproterenol submaximal response on isolated Guinea pig trachea(IT)
[2] = biological target: Beta-1 adrenergic receptor (Cavia porcellus, UniProt B0FL73); assay: Beta-1 adrenergic receptor blocking was assessed from 50% inhibition of the isoproterenol submaximal response on isolated Guinea pig atria(IA)
[3] = Selectivity, ratio of IC50 on guinea pig atria and guinea pig trachea

Chain of Beta-1 adrenergic receptor (B0FL73 whole entry): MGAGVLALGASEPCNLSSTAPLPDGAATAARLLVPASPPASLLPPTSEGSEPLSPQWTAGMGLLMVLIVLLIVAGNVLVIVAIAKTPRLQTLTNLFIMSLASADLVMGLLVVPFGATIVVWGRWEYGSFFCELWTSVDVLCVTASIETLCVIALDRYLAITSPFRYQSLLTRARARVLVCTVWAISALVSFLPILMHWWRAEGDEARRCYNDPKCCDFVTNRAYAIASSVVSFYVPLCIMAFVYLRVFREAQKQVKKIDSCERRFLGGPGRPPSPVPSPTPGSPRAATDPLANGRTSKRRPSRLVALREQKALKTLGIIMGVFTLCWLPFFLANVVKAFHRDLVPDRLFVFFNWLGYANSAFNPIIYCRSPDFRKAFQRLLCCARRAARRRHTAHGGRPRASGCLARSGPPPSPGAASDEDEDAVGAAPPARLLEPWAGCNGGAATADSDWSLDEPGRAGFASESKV
Chain of Beta-2 adrenergic receptor (Q8K4Z4 whole entry): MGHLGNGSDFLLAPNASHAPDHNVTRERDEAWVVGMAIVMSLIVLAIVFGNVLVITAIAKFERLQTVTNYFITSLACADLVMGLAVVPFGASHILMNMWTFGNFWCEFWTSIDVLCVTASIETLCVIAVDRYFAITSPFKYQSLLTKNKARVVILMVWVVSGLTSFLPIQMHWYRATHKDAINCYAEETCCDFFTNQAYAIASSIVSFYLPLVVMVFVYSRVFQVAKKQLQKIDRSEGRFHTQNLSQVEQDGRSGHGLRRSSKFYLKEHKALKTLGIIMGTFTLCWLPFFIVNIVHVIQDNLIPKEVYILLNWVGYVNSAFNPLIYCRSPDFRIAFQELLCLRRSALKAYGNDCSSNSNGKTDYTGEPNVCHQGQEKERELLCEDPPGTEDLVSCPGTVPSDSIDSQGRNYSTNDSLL

Structure (SMILES)	IC50 [1]	IC50 [2]	Ratio [3]
COC12CCCCC1c1ccc(F)cc1/C2=N/OCC(O)CNC(C)(C)C (stereo unspecified)	0.45 µM	0.83 µM	
COc1cc(CCNCC(O)CO/N=C2/c3cc(F)ccc3C3CCCCC23OC)cc(OC)c1 (stereo unspecified)	> 10 µM	> 10 µM	
COC12CCCCC1c1ccccc1/C2=N/OCC(O)CNC(C)(C)C (stereo unspecified)	0.035 µM	12 µM	33
COC12CCCCCC1c1ccccc1/C2=N/OCC(O)CNC(C)C (stereo unspecified)	0.035 µM	3 µM	
CC(C)NCC(O)CO/N=C1/c2ccccc2C2CCCCC12OCCO (stereo unspecified)	> 10 µM	> 10 µM	
CC(C)NCC(O)CO/N=C1/c2ccccc2C2CCCCCC12OCCO (stereo unspecified)	> 10 µM	> 10 µM	
COC12CCCCCC1c1ccccc1/C2=N/OCC(O)CNC(C)(C)C (stereo unspecified)	0.44 µM	0.16 µM	
CC(C)NCC(O)CO/N=C1/c2ccccc2C2CCCCCC12O (stereo unspecified)	> 10 µM	0.89 µM	

Other lines, results leading:

IC50 [1]	IC50 [2]	Ratio [3]	Structure (SMILES)
> 10 µM	> 10 µM		COC12CCCCCCCCCC1c1ccccc1/C2=N/OCC(O)CNC(C)C (stereo unspecified)
3.1 µM	0.85 µM	0.28	CC(C)(C)NCC(O)CO/N=C1/c2ccccc2C2CCCCC12OCCO (stereo unspecified)
> 10 µM	> 10 µM		COc1cc(CCNCC(O)CO/N=C2/c3ccccc3C3CCCCC23OC)cc(OC)c1 (stereo unspecified)
> 10 µM	13 µM		COc1cc(CCNCC(O)CO/N=C2/c3ccccc3C3CCCCCC23OC)cc(OC)c1 (stereo unspecified)
> 10 µM	> 10 µM		CC(C)NCC(O)CO/N=C1/c2ccccc2C2CCCCC12O (stereo unspecified)
> 10 µM	> 10 µM		COc1cc(CCNCC(O)CO/N=C2/c3ccccc3C3CCCCCCCCCC23OC)cc(OC)c1 (stereo unspecified)
0.79 µM	19 µM		COC12CCCCC1c1ccc(F)cc1/C2=N/OCC(O)CNC(C)C (stereo unspecified)
31 µM	2.8 µM	0.09	CC(C)(C)NCC(O)CO/N=C1/c2ccccc2C2CCCCC12O (stereo unspecified)
7.9 µM	> 1 µM		CC(C)(C)NCC(O)CO/N=C1/c2ccccc2C2CCCCCC12OCCO (stereo unspecified)
0.44 µM	0.34 µM		CC(C)(C)NCC(O)CO/N=C1/c2ccccc2C2CCCCCC12O (stereo unspecified)
0.3 µM	1.2 µM		COC12CCCCC1c1ccccc1/C2=N/OCC(O)CNC(C)C (stereo unspecified)
